According to US6348214B1, “Materials and methods for making improved liposome compositions” (The Board of Trustees of the Illinois, priority 1996, dated 2002):
Ends that are not written are not given here.

Tests used:
[1] = system: second-order arterioles in the cheek pouch of hamsters with spontaneous hypertension; assay: Arteriolar diameter in hamster cheek pouch microcirculation, hamsters with spontaneous hypertension; format: in vivo
Protocol: (§1) Adult male hamsters with spontaneous hypertension (n=21) and age- and genetically-matched normotensive controls (n=20) were purchased from the Canadian Hybrid Farns, Halls Harbor, NS, Canada. In preparation, the animals were anesthetized interperitoneally with sodium pentobarbital (6 mg/100 g body weight) and a tracheostomy was performed to facilitate spontaneous breathing. The left femoral vein was cannulated to inject supplemental anesthesia (2 to 4 mg per 100 g body weight per hour) during the experiment. A catheter was inserted into the left femoral artery to record systemic arterial pressure and heart rate. Body temperature was monitored to maintain a constant 37-38° C. throughout the experiment using a heating pad.
(§2) In order to visualize microcirculation of the cheek pouch, previously described methods were employed [Gao, et al., Life Sci. 64: PL274-PL252 (1994); Mayhan and Joyner, Microvasc. Res. 28: 159-179 (1984); Mayban and Rubinstein, Biochem. Biophys. Res. Commun. 184:1372-1377 (1992); Raud, Acta Physiol. Scand. Suppl. 578:1-58 (1989); Rubinstein and Mayban, J. Lab. Clin. Med. 25:313-318 (1995); Rubinstein, et al., Am. J. Physiol. 261 (Heart Circ. Physiol. 30):111913-111918 (1991); and Suzuki, et al., Life Sci. 57:1451-1457 (1995)]. Briefly, the left cheek pouch was spread over a small plastic baseplate, and an incision was made in the outer skin to expose, the cheek pouch membrane. […]
(§3) Change in arteriolar diameter was determined as follows. […] The inner wall diameter of secondorder arterioles in the cheek pouch was measured from the video display of the microscope image using a videomicrometer (VIA-100, Boeckeler Instruments, Tucson, Ariz.). […]
VIP alone or encapsulated in liposomes was suffused for 7 minutes at a concentration of VIP of either 0.05 or 0.1 nmol peptide, and more than 30 minutes elapsed between subsequent applications of the peptide. Changes in arteriolar diameter before, during, and after topical application of VIP were determined as outlined above. […]

[2] = system: second-order arterioles in the cheek pouch of normotensive hamsters; details: 0.1 nmol VIP dissolved in saline; Suzuki et al. 1995; cited from earlier work
[3] = system: second-order arterioles in the cheek pouch of normotensive hamsters; assay: Arteriolar diameter in hamster cheek pouch microcirculation, normotensive hamsters; format: in vivo; details: Example 1; 0.05 or 0.1 nmol VIP suffused for 7 minutes
Protocol: According to another experiment, normotensive hamsters were suffused onto the cheek pouch for 7 minutes with 0.1 nmol VIP-PEG-liposome composition which produced a significant increase in mean arterial diameter in situ. The results of this experiment are shown in FIG. 3 with data and significance indicated for results in FIGS. 2A and 2B above. […] Arterial diameter returned to baseline 9 minutes after suffusion was discontinued.
as §1, §2, §3

neutrophil = assay: Neutrophil chemotaxis in two chamber apparatus (response to fmlp); format: cell-based; details: FIG. 5
Text: Finally, as another experiment the effect of VIP-PEG-liposomes on neutrophil chemotaxis was examined using a two chamber apparatus routinely employed for in vitro analysis of chemotaxis. Neutrophil migration from the upper chamber into the lower chamber in response to formyl-methionyl-leucyl-phenylalanyl (fmlp) peptide in the lower chamber was initially established at a baseline control.

[4] = system: hamsters with spontaneous hypertension; assay: Mean arterial pressure after intravenous administration, hamsters with spontaneous hypertension; format: in vivo, hamster
Text: The provisional application further disclosed that a bolus intravenous injection of 1.0 nmol VIP-PEG-liposome compound acted to decrease mean arterial pressure (MAP) in hamsters with spontaneous hypertension. The results are reproduced herein as FIGS. 2A and 2B; FIG. 2A showing the actual decrease on arterial pressure and FIG. 2B showing the percent change. Data are mean values ± one standard error of the mean; an asterisk indicates statistically significant values compared to control with p value less than 0.05.
In examining the duration and efficacy of VIP in the two liposome preparations on mean arterial pressure, the following procedure was carried out. Adult mate hamsters with spontaneous hypertension (n=12) were obtained from the Canadian Hybrid Farms (Hall Harbour, Nova Scotia, Canada). Approximately 500 μl each of three test preparations, liposomes prepared by the second method above, VIP in aqueous solution, and liposomes without VIP, were injected administered over the course of 1 minute in the femoral vein. Continuous anesthesia of the animals limited the duration of the experiment to 6 hours.
Adult male golden Syrian hypertensive hamsters were prepared for intravital microscopy, cheek pouch microcirculation observed and measured, and mean arterial pressure determined, each technique as described above. […]

O=[N+]([O-])OCC(CO[N+](=O)[O-])O[N+](=O)[O-] [nitroglycerin]
vasorelaxation, hypertensive versus normotensive hamsters ([1]; Example 1, endothelium independent vasodilator control in the cheek pouch): vasorelaxation of similar magnitude in both groups

vasoactive intestinal peptide (HSDAVFTDNYTRLRKQMAVKKYLNSILN; ends and bridges not checked; UniProt P01282 125-152, looked up) [VIP]
increase in arteriolar diameter [2]: approximately 10%
effect on arteriolar diameter [3]: significant vasodilation
time after suffusion was stopped until return to baseline / persistence of vasodilation [3]: ≤ 1 min
time to maximal response from start of suffusion [3]: ≤ 4 min
effect on arteriolar diameter ([1]; Example 1, 0.05 or 0.1 nmol VIP suffused for 7 minutes): no significant effects on arteriolar diameter
effect on arteriolar diameter ([1]; Example 5, hypertensive hamsters, suffusion for 7 minutes): no effects
neutrophil migration against fmlp in the lower chamber (neutrophil; test substance added with neutrophils in the upper chamber): significant migration was observed
neutrophil migration against test substance in the lower chamber (neutrophil; test substance in lower chamber, no fmlp): negligible
effect on mean arterial pressure ([4]; Example 3, injected in the femoral vein over 1 minute): No significant effect on mean arterial pressure
effect on mean arterial pressure ([4]; Example 5, hypertensive hamsters): no effect
